Test results taken from patent publication US7037901B1, “Radiosensitization by indolocarbazole derivatives” (priority 2001, dated 2006).
Where two headings read alike, the source gives them in different places.

Legend:
[1] = tested on: TOP1 mutant DC3F/C10 cells; experiment: Radiosensitization in DC3F/C10 cells (clonogenic survival with radiation); assay type: cell-based, Chinese hamster; details: for Radiation Dose (Gy) at 10% Survival / SER / Induction of RS: DC3F/C10 cells; for Resistance of DC3F/C-10 cells to induction of RS: in comparison to the DC3F cells, Table 4; for Induction of RS: concentrations as high as 10 μg/ml (data not shown)
Procedure: (§1) Clonogenic Survival Assay. […] 18–24 h prior to experimental studies.
(§2) Colonies consisting of >50 cells were counted.
(§3) Irradiation of Cells. Drug-treated and control cells in medium were irradiated using a cobalt-60 source (Eldorado 8; Theratronics, Canada) at a dose rate of 105 cGy/min.
(§4) Analysis of Survival Curves. Survival curves were corrected for cytotoxicity induced by drug alone treatment. Sensitization enhancement ratios (SERs) and standard deviations for survival curves were determined at 10% cell survival. Each SER was calculated by dividing the radiation dose to induce 10% cell survival in the absence of radiosensitizer with the radiation dose to induce 10% cell survival in the presence of radiosensitizer.

[2] = tested on: Chinese Hamster lung fibroblast DC3F cells; experiment: Clonogenic survival assay, cytotoxicity in DC3F cells
Procedure: Clonogenic Survival Assay. For a typical clonogenic survival experiment, stock cultures of exponentially growing cells were trypsinized, rinsed, and plated (5×10^5 cells per dish for DC3F and DC3F/C-10 cells; 1×10^6 cells for MCF-7 cells) into 100-mm petri dishes and incubated at 37° C. 18–24 h prior to experimental studies.
Following various experimental protocols with drug incubation and irradiation, cells were trypsinized, rinsed, counted, and plated for […] colony formation. Depending on the anticipated survival level, 10^2 to 10^5 cells were plated per dose point. When higher cell numbers were plated, large petri dishes were used to avoid possible cell-density effect (100-mm instead of 60-mm petri dishes for cell number≧5×10^4). Depending on the treatment protocols, an equivalent amount of DMSO was added into each of the control radiation alone dishes (final DMSO concentration <0.1%).
Following seven to fourteen days of incubation, colonies were fixed with methanol/acetic acid (3:1), stained with crystal violet. Colonies consisting of >50 cells were counted. All survival points were done in triplicate, and experiments were conducted a minimum of two times. Error bars shown in the figures represent standard deviations (SD) and are shown when larger than the symbol.
The DC3F/C-10 cell line was selected from the Chinese Hamster lung fibroblast DC3F cell line in the presence of 1 μM of camptothecin (Albright, N., Radiat. Res., 112:331–340 (1987), and Chen, Y. N., J. Biol. Chem., 265:10073–10080 (1990)). […] In an attempt to determine the importance of TOP1 in mediating the cytotoxic and radiosensitizing effects by INDO derivatives, clonogenic survival assays were performed in DC3F and DC3F/C10 cells.

[3] = tested on: DC3F cells; experiment: Radiosensitization in DC3F cells (clonogenic survival with radiation); assay type: cell-based, Chinese hamster; details: for Induction of RS: concentrations as high as 10 μg/ml (data not shown)
Procedure: as §1, §2, §3, §4

[4] = biological target: T1, covalent topoisomerase-DNA cross-links in CHO cells (Cricetulus griseus, UniProt Q07050, S505G); experiment: In vivo K+-SDS co-precipitation assay for protein-DNA cross-links; assay type: cell-based, Chinese hamster; parameters: key to Protein-DNA cross-links: +++: high activity; ++: modest activity; +: low activity; details: 30-min drug treatment, based on FIG. 5
T1 construct: endogenous in cells; host or cells: Chinese hamster ovary CHO cells
T1 sequence (Q07050 2-767 S505G): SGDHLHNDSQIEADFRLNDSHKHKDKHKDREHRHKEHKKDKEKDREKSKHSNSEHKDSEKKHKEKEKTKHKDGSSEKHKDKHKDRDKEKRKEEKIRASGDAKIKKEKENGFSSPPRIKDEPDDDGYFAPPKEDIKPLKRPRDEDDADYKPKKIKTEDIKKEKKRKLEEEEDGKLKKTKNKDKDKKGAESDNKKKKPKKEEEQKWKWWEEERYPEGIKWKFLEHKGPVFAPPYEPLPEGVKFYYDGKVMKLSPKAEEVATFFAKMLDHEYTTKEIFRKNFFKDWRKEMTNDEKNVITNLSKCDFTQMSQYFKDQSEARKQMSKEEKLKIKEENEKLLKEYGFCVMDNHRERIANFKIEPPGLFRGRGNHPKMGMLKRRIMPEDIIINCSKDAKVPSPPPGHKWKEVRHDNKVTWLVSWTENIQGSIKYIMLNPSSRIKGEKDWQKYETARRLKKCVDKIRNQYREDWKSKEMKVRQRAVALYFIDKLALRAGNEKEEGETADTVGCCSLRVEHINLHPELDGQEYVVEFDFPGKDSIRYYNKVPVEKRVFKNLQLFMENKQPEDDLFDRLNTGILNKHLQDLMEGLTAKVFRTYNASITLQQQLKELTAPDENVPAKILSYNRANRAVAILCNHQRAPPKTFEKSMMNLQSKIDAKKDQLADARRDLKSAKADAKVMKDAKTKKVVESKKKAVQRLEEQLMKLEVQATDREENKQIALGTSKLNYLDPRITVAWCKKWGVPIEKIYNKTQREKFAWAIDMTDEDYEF
Source text: In vivo K^+-SDS co-precipitation assay for protein-DNA cross-links. The K^+-SDS co-precipitation assay as described previously (Chen, Y. N., et al., J. Biol. Chem., 265:10073–10080 (1990)) was used to quantify the formation of covalent topoisomerase-DNA cross-links in drug-treated cells.
Briefly, the DNA in logarithmic growing Chinese hamster CHO cells was overnight-labeled in medium containing 1 μCi/ml of [mehtyl-^3H] thymidine. These cells were then trypsinized and diluted in fresh medium before aliquoted into a 24-well plate. After overnight incubation, the labeled cells were treated with various concentrations of drugs for 30 min, washed with phosphate-buffered saline once, and lysed by adding 1 ml of prewarmed lysis solution (1.25% SDS, 5 mM EDTA, 0.4 mg/ml salmon sperm DNA, pH 8.0, 65° C.).
Following shearing chromosomal DNA by passing the lysate through a 19-gauge needle, the sample was transferred to a tube containing 0.25 ml of 325 mM KCl. The sample was vortexed vigorously for 10 s, cooled on ice for 10 min and centrifuged at 3000 rpm for 10 min at 4° C.
The pellet was then resuspended in 1 ml of a wash solution (100 mM KCl, 1 mM EDTA, 0.1 mg/ml salmon sperm DNA, 10 mM Tris-HCl, pH 8.0) and placed at 65° C. for 10 min with occasional mixing. The sample was again cooled on ice for 10 min and centrifuged at 3000 rpm for 10 min at 4° C. After the pellet from each sample was washed again, the pellet was finally resuspended in 0.2 ml of 65° C. water and added to 5 ml of scintillation fluid to determine radioactive counts.
The background precipitable counts were obtained by treating the lysate with proteinase K (400 μg/ml) at 65° C. for 2 h. Data are arithmetic means (±SD) of three determinations, and the background counts have been subtracted.

[5] = tested on: human MCF-7 and Chinese hamster DC3F cells; experiment: RS activity summary (MCF-7 and DC3F cells); assay type: cell-based; parameters: key: +: possess RS activity; −: possess no RS activity; details: MCF-7 (FIG. 2) and DC3F cells (Table 4)
Procedure: as §1, §2, §3, §4

[6] = tested on: Chinese hamster CHO cells; experiment: Radiosensitization in CHO cells (preliminary, data not shown); assay type: cell-based; details: non-cytotoxic concentrations of 2 μg/ml and 10 μg/ml
[7] = biological target: camptothecin-resistant TOP1 mutant F361S (Homo sapiens, UniProt P11387, F361S); details: published work; cited from earlier work
Sequence of camptothecin-resistant TOP1 mutant F361S (P11387 whole entry F361S): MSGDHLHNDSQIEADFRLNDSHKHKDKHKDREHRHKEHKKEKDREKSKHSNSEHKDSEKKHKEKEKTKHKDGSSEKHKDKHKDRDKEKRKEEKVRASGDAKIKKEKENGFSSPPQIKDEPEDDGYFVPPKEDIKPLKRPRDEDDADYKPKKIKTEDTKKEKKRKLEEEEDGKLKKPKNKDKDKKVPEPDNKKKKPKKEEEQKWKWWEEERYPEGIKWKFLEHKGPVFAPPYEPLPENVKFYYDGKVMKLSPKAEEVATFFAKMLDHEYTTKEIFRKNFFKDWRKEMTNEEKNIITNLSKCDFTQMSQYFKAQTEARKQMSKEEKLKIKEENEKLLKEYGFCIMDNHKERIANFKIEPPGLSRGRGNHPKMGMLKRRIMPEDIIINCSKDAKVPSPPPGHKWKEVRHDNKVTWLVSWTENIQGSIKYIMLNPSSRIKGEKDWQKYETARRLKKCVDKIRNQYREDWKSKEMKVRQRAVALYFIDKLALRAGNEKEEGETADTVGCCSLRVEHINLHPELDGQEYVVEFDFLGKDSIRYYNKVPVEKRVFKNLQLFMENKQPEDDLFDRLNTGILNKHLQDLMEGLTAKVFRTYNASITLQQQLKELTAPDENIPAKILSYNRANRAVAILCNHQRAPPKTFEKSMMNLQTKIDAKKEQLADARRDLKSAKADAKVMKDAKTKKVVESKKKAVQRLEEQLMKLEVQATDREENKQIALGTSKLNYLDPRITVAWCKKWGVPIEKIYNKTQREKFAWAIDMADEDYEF

CO[C@H]1[C@H](O)[C@@H](O)[C@H](n2c3c(Cl)cccc3c3c4c(c5c6cccc(Cl)c6[nH]c5c32)C(=O)NC4=O)O[C@@H]1CO [F1, rebeccamycin]
Radiation Dose (Gy) at 10% Survival ([1]; 5.0 μg/ml): 4.8 Gy
SER ([1]; 5.0 μg/ml): 1.1
Radiation Dose (Gy) at 10% Survival ([1]; 25 μg/ml): 4.5 Gy
SER ([1]; 25 μg/ml): 1.2
Resistance of DC3F/C-10 cells to induction of RS [1]: showed resistance to induction of RS
Cytotoxic effect [2]: lack of cytotoxic effect
Radiation Dose (Gy) at 10% Survival ([3]; 1.0 μg/ml): 4.9 Gy
SER ([3]; 1.0 μg/ml): 1.2
Radiation Dose (Gy) at 10% Survival ([3]; 5.0 μg/ml): 4.6 Gy
SER ([3]; 5.0 μg/ml): 1.3
Protein-DNA cross-links [4]: ++
RS (radiosensitization activity) [5]: +

COC1C(CO)OC(n2c3ccccc3c3c4c(c5c6ccccc6[nH]c5c32)C(=O)OC4=O)C(O)C1O (stereo not shown) [F5]
Cytotoxic effect ([2]; DC3F cells): lack of cytotoxic effect
Induction of RS [6]: potent inducer of RS
Protein-DNA cross-links [4]: +
RS (radiosensitization activity) [5]: +

COC1C(CO)OC(n2c3ccccc3c3c4c(c5c6ccccc6[nH]c5c32)C(=O)N(O)C4=O)C(O)C1O (stereo not shown) [F7]
Radiation Dose (Gy) at 10% Survival ([1]; 5.0 μg/ml): 5.2 Gy
SER ([1]; 5.0 μg/ml): 1.0
Radiation Dose (Gy) at 10% Survival ([1]; 10 μg/ml): 4.9 Gy
SER ([1]; 10 μg/ml): 1.1
Radiation Dose (Gy) at 10% Survival ([1]; 20 μg/ml): 4.1 Gy
SER ([1]; 20 μg/ml): 1.3
Resistance of DC3F/C-10 cells to induction of RS [1]: showed resistance to induction of RS
Cross-resistance of mutant TOP1 [7]: cross-resistant
Radiation Dose (Gy) at 10% Survival ([3]; 2.5 μg/ml): 4.6 Gy
SER ([3]; 2.5 μg/ml): 1.3
Radiation Dose (Gy) at 10% Survival ([3]; 5.0 μg/ml): 3.9 Gy
SER ([3]; 5.0 μg/ml): 1.5
Radiation Dose (Gy) at 10% Survival ([3]; 10 μg/ml): 3.6 Gy
SER ([3]; 10 μg/ml): 1.7
Protein-DNA cross-links [4]: ++
RS (radiosensitization activity) [5]: +

COC1C(CO)OC(n2c3c(Cl)cccc3c3c4c(c5c6cccc(Cl)c6[nH]c5c32)C(=O)N(C)C4=O)C(O)C1O (stereo not shown) [F43]
Cytotoxic effect ([2]; DC3F cells): lack of cytotoxic effect
Protein-DNA cross-links [4]: +
RS (radiosensitization activity) [5]: −

COC1C(CO)OC(n2c3ccccc3c3c4c(c5c6ccccc6[nH]c5c32)C(=O)N(C)C4=O)C(O)C1O (stereo not shown) [F44]
Induction of RS [1]: incapable of inducing RS
Induction of RS [3]: incapable of inducing RS
Protein-DNA cross-links [4]: ++
RS (radiosensitization activity) [5]: −

COC1C(CO)OC(n2c3ccccc3c3c4c(c5c6ccccc6[nH]c5c32)C(=O)NC4=O)C(O)C1O (stereo not shown) [F71]
Induction of RS [1]: incapable of inducing RS
Induction of RS [3]: incapable of inducing RS
Protein-DNA cross-links [4]: +++
RS (radiosensitization activity) [5]: −
